This note sets out measurements from patent US20030176314A1, “Compounds for the treatment of pain” (priority 2001, published 2003).

One experiment deals with T1, rat NPFF2 receptor (Rattus norvegicus, UniProt Q9EQD2).
T1 construct: The full-length NPFF2 was amplified from rat spinal cord cDNA; expressed in transfected cells; host or cells: not given
In words: Functional assay (agonist potency, intrinsic activity) at cloned rat NPFF2 receptor. The format is cell-based. As to conditions: for rNPFF2 IA: Table 7, intrinsic activity; for Functional Activity rNPFF2 I.A. % / EC50: Table 4; for Functional Activity rNPFF2 I.A. %: percent of maximum response elicited by neuropeptide FF; for EC50: read-out: Functional Activity rNPFF2 EC50.

The next experiment deals with T2, rat NPFF1 receptor (Rattus norvegicus, UniProt Q9EP86).
T2 construct: expressed in transfected cells; host or cells: not given
T2 sequence (Q9EP86 whole entry): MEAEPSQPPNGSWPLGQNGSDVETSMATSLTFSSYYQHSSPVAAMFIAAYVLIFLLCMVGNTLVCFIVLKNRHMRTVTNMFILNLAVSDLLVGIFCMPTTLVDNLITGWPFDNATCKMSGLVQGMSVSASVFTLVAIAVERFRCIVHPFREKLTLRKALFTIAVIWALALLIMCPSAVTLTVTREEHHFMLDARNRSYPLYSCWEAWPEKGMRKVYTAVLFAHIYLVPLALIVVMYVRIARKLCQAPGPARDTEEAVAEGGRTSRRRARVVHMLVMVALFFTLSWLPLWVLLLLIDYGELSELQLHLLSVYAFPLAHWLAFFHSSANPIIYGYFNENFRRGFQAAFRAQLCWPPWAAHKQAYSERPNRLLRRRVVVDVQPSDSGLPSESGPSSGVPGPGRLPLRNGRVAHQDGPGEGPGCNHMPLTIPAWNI
In words: Functional assay (agonist potency, intrinsic activity) at cloned rat NPFF1 receptor. The following applies: for rNPFF1 IA: Table 7, intrinsic activity; for Functional Activity rNPFF1 I.A. %: percent of maximum response elicited by neuropeptide FF. The class given is cell-based.

Setting [1] is: agonist: IA>15%, antagonist: Ki≦1.2 mM and IA≦15% at the rat cloned NPFF receptors.

Where two headings read alike, the source gives them in different places.

T1 sequence (Q9EQD2 whole entry): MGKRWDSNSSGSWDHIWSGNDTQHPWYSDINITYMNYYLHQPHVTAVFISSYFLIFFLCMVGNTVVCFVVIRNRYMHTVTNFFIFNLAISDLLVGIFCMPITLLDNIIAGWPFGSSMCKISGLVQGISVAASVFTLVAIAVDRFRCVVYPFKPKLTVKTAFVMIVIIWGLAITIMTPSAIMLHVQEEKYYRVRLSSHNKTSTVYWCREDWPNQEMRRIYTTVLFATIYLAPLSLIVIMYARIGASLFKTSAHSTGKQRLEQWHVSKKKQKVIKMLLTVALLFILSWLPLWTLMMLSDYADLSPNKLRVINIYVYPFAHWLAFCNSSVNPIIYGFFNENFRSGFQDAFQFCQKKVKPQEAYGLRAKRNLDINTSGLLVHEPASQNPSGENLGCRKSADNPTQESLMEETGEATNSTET

For `Cc1ccc2nc(NC(=N)N)nc(C)c2c1` [Compound 1002A, N-(4,6-dimethyl-2-quinazolinyl)guanidine], at rat NPFF2 receptor, the “rNPFF2 IA” value turned out to be 24% NPFF. As to `Cc1nc(NC(=N)N)nc2ccc(C(C)(C)C)cc12` [Compound 1004A, N-(6-tert-butyl-4-methyl-2-quinazolinyl)guanidine], on rat NPFF1 receptor, the “rNPFF1 IA” value amounted to 36% NPFF. Also, on rat NPFF2 receptor, the “rNPFF2 IA” value amounted to 90% NPFF. For `N=C(N)NCCC[C@H](NS(=O)(=O)c1c(F)cccc1F)C(=O)N[C@@H](Cc1ccccc1)C(N)=O` [Compound 1004B], the “Functional Activity rNPFF1 I.A. %” value on rat NPFF1 receptor (Table 4) is given as 79%. Besides, at rat NPFF2 receptor, the “Functional Activity rNPFF2 I.A. %” value is recorded as 43% and the EC50 is above 3160 nM. As for `N=C(N)NCCC[C@H](NS(=O)(=O)c1ccc(F)cc1)C(=O)N[C@@H](Cc1ccccc1)C(N)=O` [Compound 1005B], the “Functional Activity rNPFF2 I.A. %” value at rat NPFF2 receptor is recorded as 46%. For `Cc1nc(NC(=N)N)nc2cc(OCc3ccccc3)ccc12` [Compound 1006A, N-[7-(benzyloxy)-4-methyl-2-quinazolinyl]guanidine], the “rNPFF1 IA” value on rat NPFF1 receptor is 15% NPFF. On rat NPFF2 receptor, the “rNPFF2 IA” value is listed as 22% NPFF.

With `Cc1ccc(S(=O)(=O)N[C@@H](CCCNC(=N)N)C(=O)N[C@@H](Cc2ccccc2)C(N)=O)cc1` [Compound 1007B], the “Functional Activity rNPFF2 I.A. %” value at rat NPFF2 receptor is given as 55%. Consider `CCCc1ccc2nc(NC(=N)N)nc(C)c2c1` [Compound 1008A, N-(4-methyl-6-propyl-2-quinazolinyl)guanidine], for which, at rat NPFF2 receptor, the “rNPFF2 IA” value amounted to 85% NPFF. For `CCCCCCCCc1ccc2nc(NC(=N)N)nc(C)c2c1` [Compound 1009A, N-(4-methyl-6-octyl-2-quinazolinyl)guanidine], the EC50 at rat NPFF1 receptor (Table 7, agonist potency, read-out: rNPFF1 EC50) worked out at 1490 nM. For the same compound, the “rNPFF2 IA” value at rat NPFF2 receptor stood at 22% NPFF. Consider `Cc1nc(NC(=N)N)nc2ccc(-c3ccccc3)cc12` [Compound 1010A, N-(4-methyl-6-phenyl-2-quinazolinyl)guanidine], for which the “rNPFF2 IA” value on rat NPFF2 receptor was found to be 22% NPFF.

As to `N=C(N)NCCC[C@H](NS(=O)(=O)c1ccc(Cl)cc1Cl)C(=O)N[C@@H](Cc1ccccc1)C(N)=O` [Compound 1010B], the “Functional Activity rNPFF2 I.A. %” value at rat NPFF2 receptor is recorded as 28%. Take `CCCCOc1ccc2nc(NC(=N)N)nc(C)c2c1` [Compound 1012A, N-(6-butoxy-4-methyl-2-quinazolinyl)guanidine]: the “rNPFF2 IA” value at rat NPFF2 receptor came out at 80% NPFF.

Regarding `Cc1nc(NC(=N)N)nc2cc(Br)ccc12` [Compound 1014A, N-(7-bromo-4-methyl-2-quinazolinyl)guanidine], on rat NPFF2 receptor, the “rNPFF2 IA” value is reported as 47% NPFF. Same read-out and setting: the figure for `Cc1cc2nc(NC(=N)N)nc(C)c2cc1C` [Compound 1015A, N-(4,6,7-trimethyl-2-quinazolinyl)guanidine] is 56% NPFF. On to `COc1ccc(S(=O)(=O)N[C@@H](CCCNC(=N)N)C(=O)N[C@@H](Cc2ccccc2)C(N)=O)cc1OC` [Compound 1015B], for which the “Functional Activity rNPFF1 I.A. %” value on rat NPFF1 receptor (Table 4) is 84%. The “Functional Activity rNPFF2 I.A. %” value at rat NPFF2 receptor is 74%. On to `COc1cc2c(C)nc(NC(=N)N)nc2cc1C` [Compound 1016A, N-(6-methoxy-4,7-dimethyl-2-quinazolinyl)guanidine], for which the “rNPFF2 IA” value on rat NPFF2 receptor is 74% NPFF.

Regarding `Cc1cc2nc(NC(=N)N)nc(C)c2cc1O` [Compound 1017A, N-(6-hydroxy-4,7-dimethyl-2-quinazolinyl)guanidine], the “rNPFF2 IA” value at rat NPFF2 receptor turned out to be 23% NPFF.

Take `Cc1nc(NC(=N)N)nc2cc(F)c(F)cc12` [Compound 1019A, N-(6,7-difluoro-4-methyl-2-quinazolinyl)guanidine]: the “rNPFF2 IA” value on rat NPFF2 receptor was found to be 31% NPFF. Consider `N=C(N)NCCC[C@H](NS(=O)(=O)c1c(Cl)cccc1Cl)C(=O)N[C@@H](Cc1ccccc1)C(N)=O` [Compound 1019B], for which, at rat NPFF1 receptor (setting [1]), the “classification as agonist or antagonist at the NPFF1 receptor” value was “agonists”. Further, the “classification as agonist or antagonist at the NPFF2 receptor” value at rat NPFF2 receptor (setting [1]) is “agonists”.

`Cc1nc(NC(=N)N)nc2cc(C(C)C)ccc12` [Compound 1021A, N-(7-isopropyl-4-methyl-2-quinazolinyl)guanidine]: on rat NPFF2 receptor, the “rNPFF2 IA” value is on record as 76% NPFF. Take `N=C(N)NCCC[C@H](NS(=O)(=O)c1ccc(Cl)c(Cl)c1)C(=O)N[C@@H](Cc1ccccc1)C(N)=O` [Compound 1022B]: the “Functional Activity rNPFF1 I.A. %” value at rat NPFF1 receptor (Table 4) is listed as 86%. Besides, the EC50 on rat NPFF1 receptor (Table 4, read-out: Functional Activity rNPFF1 EC50) amounted to 1860 nM. Moreover, on rat NPFF2 receptor, the “Functional Activity rNPFF2 I.A. %” value came to 34% and the EC50 is above 3160 nM.

For the compound `Cc1nc(NC(=N)N)nc2cc(OC(C)C)ccc12` [Compound 1025A, N-[4-methyl-7-(isopropoxy)-2-quinazolinyl]guanidine], the “rNPFF2 IA” value at rat NPFF2 receptor turned out to be 27% NPFF. The same measure, in the same setting: as for `Cc1nc(NC(=N)N)nc2ccc(Br)cc12` [Compound 1026A, N-(6-bromo-4-methyl-2-quinazolinyl)guanidine], the figure is 19% NPFF. With `N=C(N)NCCC[C@H](NS(=O)(=O)c1ccccc1[N+](=O)[O-])C(=O)N[C@@H](Cc1ccccc1)C(N)=O` [Compound 1026B], at rat NPFF1 receptor (Table 4), the “Functional Activity rNPFF1 I.A. %” value worked out at 79%. In addition, at rat NPFF2 receptor, the “Functional Activity rNPFF2 I.A. %” value worked out at 59%. Regarding `Cc1nc(NC(=N)N)nc2ccc(OCc3ccccc3)cc12` [Compound 1028A, N-[6-(benzyloxy)-4-methyl-2-quinazolinyl]guanidine], the “rNPFF2 IA” value at rat NPFF2 receptor was 79% NPFF. On the same count and under the same terms, the figure for `Cc1nc(NC(=N)N)nc2ccc(OC(F)(F)F)cc12` [Compound 1030A, N-[4-methyl-6-(trifluoromethoxy)-2-quinazolinyl]guanidine] is 85% NPFF; for `CCCCCOc1ccc2nc(NC(=N)N)nc(C)c2c1` [Compound 1031A, N-[4-methyl-6-(pentyloxy)-2-quinazolinyl]guanidine] it is 66% NPFF; for `Cc1ccc(Oc2ccc3nc(NC(=N)N)nc(C)c3c2)cc1` [Compound 1033A, N-[4-methyl-6-(4-methylphenoxy)-2-quinazolinyl]guanidine] it is 51% NPFF. On to `Cc1nc(NC(=N)N)nc2cc(C(C)O)ccc12` (centres unmarked) [Compound 1035A, N-[7-(1-hydroxyethyl)-4-methyl-2-quinazolinyl]guanidine], for which the “rNPFF2 IA” value on rat NPFF2 receptor was determined as 52% NPFF. The same measure, in the same setting: the figure for `Cc1nc(NC(=N)N)nc2cc(OC(F)(F)F)ccc12` [Compound 1036A, N-[4-methyl-7-(trifluoromethoxy)-2-quinazolinyl]guanidine] is 78% NPFF; for `Cc1nc(NC(=N)N)nc2cc3c(cc12)C=CCC3` [Compound 1037A, N-(4-methyl-8,9-dihydrobenzo[g]quinazolin-2-yl)guanidine] it is 71% NPFF; for `Cc1ccc2nc(NC(=N)N)cc(C)c2c1` [Compound 4001A, N-(4,6-dimethyl-2-quinolinyl)guanidine] it is 68% NPFF. The same measure, in the same setting: as for `Cc1cc(NC(=N)N)nc2ccc(-c3ccccc3)cc12` [Compound 4003A, N-(4-methyl-6-phenyl-2-quinolinyl)guanidine], the figure is 26% NPFF. Still for that read-out and setting: the figure for `COc1ccc2nc(NC(=N)N)cc(C)c2c1` [Compound 4004A, N-(6-methoxy-4-methyl-2-quinolinyl)guanidine] is 65% NPFF. Consider `Cc1cc(NC(=N)N)nc2cc(F)ccc12` [Compound 4007A, N-(7-fluoro-4-methyl-2-quinolinyl)guanidine], for which, on rat NPFF2 receptor, the “rNPFF2 IA” value is reported as 17% NPFF. Same read-out and setting: as for `Cc1cc(C)c2c(C)cc(NC(=N)N)nc2c1` [Compound 4008A, N-(4,5,7-trimethyl-2-quinolinyl)guanidine], the figure is 65% NPFF; as for `Cc1cc(NC(=N)N)nc2ccc3ccccc3c12` [Compound 4009A, N-(1-methylbenzo[f]quinolin-3-yl)guanidine], 70% NPFF.

For orientation: EC50 means the concentration that produces a half-maximal response.
